# Test results as given in patent US20250145633A1, “SUBSTITUTED FURANOPYRIMIDINE COMPOUNDS AS PDE1 INHIBITORS” (Dart NeuroScience, LLC, priority 2017, published 2025).
# Target: human PDE1B enzyme (Homo sapiens (Human), UniProt Q01064)
# Experiment: IMAP TR-FRET PDE1B enzymatic assay
# Assay type: biochemical
# Conditions: negative log of half-maximal molar inhibitory concentration; 200 nM FAM-cAMP; values given as bins
# Method in brief: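 Full-length GST-tagged human PDE1B (250 pg/well) in IMAP BSA buffer with 10 U/ml calmodulin and 2.5 mM CaCl2; compound pre-incubated 5 min at room temperature, then 200 nM (final) FAM-cAMP for 30 min. IMAP binding reagent/Tb added, 1 h; TR-FRET 520/490 ratio read. IC50 from sigmoidal dose-response fit.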
row,Structure (SMILES),PDE1b (pIC50)
1,"CCC1(NC(=O)c2c(C)oc3ncnc(NC4(C)CC4)c23)CC1 [Example 145, N-(1-Ethylcyclopropyl)-6-methyl-4-[(1-methylcyclopropyl)amino]furo[2,3-d]pyrimidine-5-carboxamide]",>8
2,"Cc1oc2ncnc(NC3(C)CC3)c2c1C(=O)N1CCN(c2cccc(F)n2)CC1 [Example 154, 5-[4-(6-Fluoropyridin-2-yl)piperazine-1-carbonyl]-6-methyl-N-(1-methylcyclopropyl)furo[2,3-d]pyrimidin-4-amine]",>8
3,"Cc1cnc(CNC(=O)c2c(C)oc3ncnc(NC4(C)CC4)c23)cn1 [Example 460, 6-Methyl-4-[(1-methylcyclopropyl)amino]-N-[(5-methylpyrazin-2-yl)methyl]furo[2,3-d]pyrimidine-5-carboxamide]",>8
4,"Cc1oc2ncnc(NC3(C)CC3)c2c1C(=O)N1CCC(c2ccccn2)CC1 [Example 301, 6-Methyl-N-(1-methylcyclopropyl)-5-[4-(pyridin-2-yl)piperidine-1-carbonyl]furo[2,3-d]pyrimidin-4-amine]",>8

# Same assay, conditions: negative log of half-maximal molar inhibitory concentration; 200 nM FAM-cAMP; values given as bins; read-out: PDE1b (pIC50) (converted)
row,Structure (SMILES),IC50 [nM]
1,"Cc1oc2ncnc(NC3(C)CC3)c2c1C(=O)NC(C)C1(C)CC1 (stereo not shown) [Example 402, 6-Methyl-4-[(1-methylcyclopropyl)amino]-N-[1-(1-methylcyclopropyl)ethyl]furo[2,3-d]pyrimidine-5-carboxamide]",10 to 100
2,"Cc1oc2ncnc(NC3(C)CC3)c2c1C(=O)NCCOC(C)C [Example 176, 6-Methyl-4-[(1-methylcyclopropyl)amino]-N-[2-(propan-2-yloxy)ethyl]furo[2,3-d]pyrimidine-5-carboxamide]",10 to 100
3,"Cc1oc2ncnc(NC3(C)CC3)c2c1C(=O)N1CCC(c2cn(C)nn2)CC1 [Example 778, 6-Methyl-5-[4-(1-methyl-1H-1,2,3-triazol-4-yl)piperidine-1-carbonyl]-N-(1-methylcyclopropyl)furo[2,3-d]pyrimidin-4-amine]",10 to 100
4,"Cc1oc2ncnc(NC3(C)CC3)c2c1C(=O)N1CC[C@@H]2OCC[C@@H]21 [Example 155, 5-[(3aS,6aS)-Hexahydro-2H-furo[3,2-b]pyrrole-4-carbonyl]-6-methyl-N-(1-methylcyclopropyl)furo[2,3-d]pyrimidin-4-amine]",10 to 100
5,"COc1cc(CNC(=O)c2c(C)oc3ncnc(NC4(C)CC4)c23)cc(OC)c1 [Example 495, N-[(3,5-Dimethoxyphenyl)methyl]-6-methyl-4-[(1-methylcyclopropyl)amino]furo[2,3-d]pyrimidine-5-carboxamide]",10 to 100
6,"Cc1oc2ncnc(NC3(C)CC3)c2c1C(=O)N1CCn2c(C3CC3)nc(Cl)c2C1 [Example 694, 5-{1-Chloro-3-cyclopropyl-5H,6H,7H,8H-imidazo[1,5-a]pyrazine-7-carbonyl}-6-methyl-N-(1-methylcyclopropyl)furo[2,3-d]pyrimidin-4-amine]",10 to 100
7,"Cc1oc2ncnc(NC3(C)CC3)c2c1C(=O)Nc1cnn(-c2ccncc2)c1 [Example 621, 6-Methyl-4-[(1-methylcyclopropyl)amino]-N-[1-(pyridin-4-yl)-1H-pyrazol-4-yl]furo[2,3-d]pyrimidine-5-carboxamide]",10 to 100
8,"Cc1cc(N2CCC(NC(=O)c3c(C)oc4ncnc(NC5(C)CC5)c34)CC2)nc(C)n1 [Example 672, N-[1-(2,6-Dimethylpyrimidin-4-yl)piperidin-4-yl]-6-methyl-4-[(1-methylcyclopropyl)amino]furo[2,3-d]pyrimidine-5-carboxamide]",100 to 1000
9,"Cc1coc(CNC(=O)c2c(C)oc3ncnc(NC4(C)CC4)c23)n1 [Example 760, 6-Methyl-N-[(4-methyl-1,3-oxazol-2-yl)methyl]-4-[(1-methylcyclopropyl)amino]furo[2,3-d]pyrimidin-5-carboxamide]",10 to 100
10,"CCOc1ccc(CNC(=O)c2c(C)oc3ncnc(NC4(C)CC4)c23)cc1OC [Example 509, N-[(4-Ethoxy-3-methoxyphenyl)methyl]-6-methyl-4-[(1-methylcyclopropyl)amino]furo[2,3-d]pyrimidine-5-carboxamide]",10 to 100
11,"Cc1oc2ncnc(NC3(C)CC3)c2c1C(=O)N1CCc2ccc(Cl)nc2C1 [Example 286, 5-(2-Chloro-5,6,7,8-tetrahydro-1,7-naphthyridine-7-carbonyl)-6-methyl-N-(1-methylcyclopropyl)furo[2,3-d]pyrimidin-4-amine]",10 to 100
12,"COCCn1cc(NC(=O)c2c(C)oc3ncnc(NC4(C)CC4)c23)cn1 [Example 429, N-[1-(2-Methoxyethyl)-1H-pyrazol-4-yl]-6-methyl-4-[(1-methylcyclopropyl)amino]furo[2,3-d]pyrimidine-5-carboxamide]",10 to 100
13,"Cc1oc2ncnc(NC3(C)CC3)c2c1C(=O)NCc1cccn1C [Example 111, 6-Methyl-N-[(1-methyl-1H-pyrrol-2-yl)methyl]-4-[(1-methylcyclopropyl)amino]furo[2,3-d]pyrimidine-5-carboxamide]",10 to 100
14,"Cc1oc2ncnc(NC3(C)CC3)c2c1C(=O)NCc1ncn(C)n1 [Example 741, 6-Methyl-N-[(1-methyl-1H-1,2,4-triazol-3-yl)methyl]-4-[(1-methylcyclopropyl)amino]furo[2,3-d]pyrimidine-5-carboxamide]",10 to 100
15,"Cc1oc2ncnc(NC3(C)CC3)c2c1C(=O)NC(C)(C)c1ccccc1 [Example 239, 6-Methyl-4-[(1-methylcyclopropyl)amino]-N-(2-phenylpropan-2-yl)furo[2,3-d]pyrimidine-5-carboxamide]",10 to 100
16,"Cc1oc2ncnc(NC3(C)CC3)c2c1C(=O)NC(C)(C)c1ccccn1 [Example 78, 6-Methyl-4-[(1-methylcyclopropyl)amino]-N-[2-(pyridin-2-yl)propan-2-yl]furo[2,3-d]pyrimidine-5-carboxamide]",10 to 100
17,"Cc1oc2ncnc(NC3(C)CC3)c2c1C(=O)N1CCc2ccc(O)cc2C1 [Example 332, 2-{6-Methyl-4-[(1-methylcyclopropyl)amino]furo[2,3-d]pyrimidine-5-carbonyl}-1,2,3,4-tetrahydroisoquinolin-7-ol]",10 to 100
18,"Cc1oc2ncnc(NC3(C)CC3)c2c1C(=O)NCC1(C)COC1 [Example 93, 6-Methyl-4-[(1-methylcyclopropyl)amino]-N-[(3-methyloxetan-3-yl)methyl]furo[2,3-d]pyrimidine-5-carboxamide]",10 to 100
19,"Cc1oc2ncnc(NC3(C)CC3)c2c1C(=O)N1CCc2ncc(O)cc2C1 [Example 333, 6-{6-Methyl-4-[(1-methylcyclopropyl)amino]furo[2,3-d]pyrimidine-5-carbonyl}-5,6,7,8-tetrahydro-1,6-naphthyridin-3-ol]",100 to 1000
20,"COc1cccc(OC2CN(C(=O)c3c(C)oc4ncnc(NC5(C)CC5)c34)C2)c1 [Example 590, 5-[3-(3-Methoxyphenoxy)azetidine-1-carbonyl]-6-methyl-N-(1-methylcyclopropyl)furo[2,3-d]pyrimidin-4-amine]",< 10
21,"COc1ccc(N2CCN(C(=O)c3c(C)oc4ncnc(NC5(C)CC5)c34)CC2)cc1 [Example 186, 5-[4-(4-Methoxyphenyl)piperazine-1-carbonyl]-6-methyl-N-(1-methylcyclopropyl)furo[2,3-d]pyrimidin-4-amine]",10 to 100
22,"Cc1oc2ncnc(NC3(C)CC3)c2c1C(=O)N1CCc2c(ccnc2Cl)C1 [Example 285, 5-(5-Chloro-1,2,3,4-tetrahydro-2,6-naphthyridine-2-carbonyl)-6-methyl-N-(1-methylcyclopropyl)furo[2,3-d]pyrimidin-4-amine]",10 to 100
23,"Cc1nccc(N2CCC(NC(=O)c3c(C)oc4ncnc(NC5(C)CC5)c34)CC2)n1 [Example 670, 6-Methyl-4-[(1-methylcyclopropyl)amino]-N-[1-(2-methylpyrimidin-4-yl)piperidin-4-yl]furo[2,3-d]pyrimidine-5-carboxamide]",100 to 1000
24,"COCCn1ccc(NC(=O)c2c(C)oc3ncnc(NC4(C)CC4)c23)n1 [Example 440, N-[1-(2-Methoxyethyl)-1H-pyrazol-3-yl]-6-methyl-4-[(1-methylcyclopropyl)amino]furo[2,3-d]pyrimidine-5-carboxamide]",10 to 100
25,"Cc1oc2ncnc(NC3(C)CC3)c2c1C(=O)NCc1ccsc1 [Example 191, 6-Methyl-4-[(1-methylcyclopropyl)amino]-N-(thiophen-3-ylmethyl)furo[2,3-d]pyrimidine-5-carboxamide]",10 to 100
26,"Cc1oc2ncnc(NC3(C)CC3)c2c1C(=O)N1CCC2(CC1)OC(=O)Nc1ccc(F)cc12 [Example 386, 6-Fluoro-1′-{6-methyl-4-[(1-methylcyclopropyl)amino]furo[2,3-d]pyrimidine-5-carbonyl}-1,2-dihydrospiro[3,1-benzoxazine-4,4′-piperidine]-2-one]",10 to 100
27,"COc1cnc(CNC(=O)c2c(C)oc3ncnc(NC4(C)CC4)c23)cn1 [Example 731, N-[(5-Methoxypyrazin-2-yl)methyl]-6-methyl-4-[(1-methylcyclopropyl)amino]furo[2,3-d]pyrimidine-5-carboxamide]",10 to 100
28,"CNC(=O)c1c(C)oc2ncnc(NC3(C)CC3)c12 [Example 80, N,6-Dimethyl-4-[(1-methylcyclopropyl)amino]furo[2,3-d]pyrimidine-5-carboxamide]",100 to 1000
29,"Cc1oc2ncnc(NC3(C)CC3)c2c1C(=O)NCCC(C)C [Example 168, 6-Methyl-N-(3-methylbutyl)-4-[(1-methylcyclopropyl)amino]furo[2,3-d]pyrimidine-5-carboxamide]",10 to 100
30,"Cc1nc(NC(=O)c2c(C)oc3ncnc(NC4(C)CC4)c23)cs1 [Example 453, 6-Methyl-N-(2-methyl-1,3-thiazol-4-yl)-4-[(1-methylcyclopropyl)amino]furo[2,3-d]pyrimidine-5-carboxamide]",10 to 100
